The values below come from PMC5085626, “Characterization of a β-Adrenergic-Like Octopamine Receptor in the Oriental Fruit Fly, Bactrocera dorsalis (Hendel)” (International Journal of Molecular Sciences, 2016).

In experiment [1] the test system is empty pcDNA3.1 vector-transfected HEK-293 cells. Nature of the experiment: Negative control: cAMP luminescence in empty pcDNA3.1 vector-transfected HEK-293 cells. Format: cell-based. Particulars: ligands at 1.00 × 10^−6 M.
The test system of experiment [2] is DmOctβR1. Also on record: method as in PMID 15998303. As to conditions: DmOctβR1 of D. melanogaster; cited from earlier work.
Experiment [3] has as its target T1, BdOctβR1 (Bactrocera dorsalis, UniProt A0ABM3J3U4). Nature of the experiment: Agonist cAMP response assay (GloSensor luminescence) of BdOctβR1 transiently expressed in HEK-293 cells. The experiment is classed as cell-based. As to conditions: for EC50: BdOctβR1 in HEK-293 cells, cAMP luminescence, read-out: median effective concentration (EC50). An excerpt:
A 10-fold serial dilution of the ligands octopamine, tyramine, dopamine, naphazoline, and phentolamine was applied to the cells. […] The authentic ligand octopamine was selected as the model ligand for normalization of the luminescence. A concentration–response curve was generated for each receptor by logistic fitting in Origin 8.6 (OriginLab, Northampton, MA, USA) as previously reported.

The subject of a further experiment is AmOctβR1. Also on record: method as in PMID 24266860. Particulars: AmOctβR1 of A. mellifera; cited from earlier work.
For experiment [4], the target named is T1, BdOctβR1.
Experimental: (§1) For the cAMP response assays, we used the non-lytic GloSensor cyclic AMP assay kit (Promega) for monitoring intracellular cAMP in live cells. At the same time, the empty pcDNA3.1 vector was transfected in HEK-293 cells as a negative control. The methods for transient expression of BdOctβR1 in HEK-293 cells and procedures for the assays were followed as previously described [41, 42, 43, 44]. Thirty hours after the transfection, the cells were collected and preincubated with 1% GloSensor substrate in HEK-293 cells (Invitrogen) before the test. Ligands being tested were plated in each well of the 96-well plate. As described previously, the cells were injected into a well, and the changes in luminescence were monitored [45].
(§2) The antagonist assay was examined with serial dilutions of antagonists in the transfected cells on a luminescence detection systems (Berthold Technologies). Basically, the antagonistic activity assay was conducted in 2 sequential treatments. In the 1st treatment, various concentrations of ligands (50 μL in volume) were plated in each well, including a solvent (DMEM, Dulbecco’s modified Eagle’s medium) as control. Following the injection of the cells into the well, a 30-min incubation with the tested ligands was conducted. Subsequently, the 2nd treatment was conducted. The cells were treated with 1.00 × 10^−6 M octopamine, which was the minimum concentration inducing the maximal activity, and the luminescent response was measured. For the assays, the cells treated with DMEM in both the 1st and 2nd treatment were set as background. The cells were treated with DMEM in the 1st treatment, while 1.00 × 10^−6 M octopamine in the 2nd treatment, without adding any antagonist, served as positive control. Relative luminescence of ligand was normalized to the largest positive control response in each plate (1.00 × 10^−6 M octopamine) after background subtractions [43]. The values calculated in the treatment were used to construct the inhibitor concentration–response curves. […]
The test system of experiment [5] is DmOctβR1. Set-up: method as in PMID 15998303. Particulars: DmOctβR1 in Drosophila; cited from earlier work.
Experiment [6] deals with T1, BdOctβR1. Nature of the experiment: cell-based.
Experimental: as §1, §2

Counter-ions that a name gives are not always drawn.

T1 sequence (A0ABM3J3U4 entry or part of it): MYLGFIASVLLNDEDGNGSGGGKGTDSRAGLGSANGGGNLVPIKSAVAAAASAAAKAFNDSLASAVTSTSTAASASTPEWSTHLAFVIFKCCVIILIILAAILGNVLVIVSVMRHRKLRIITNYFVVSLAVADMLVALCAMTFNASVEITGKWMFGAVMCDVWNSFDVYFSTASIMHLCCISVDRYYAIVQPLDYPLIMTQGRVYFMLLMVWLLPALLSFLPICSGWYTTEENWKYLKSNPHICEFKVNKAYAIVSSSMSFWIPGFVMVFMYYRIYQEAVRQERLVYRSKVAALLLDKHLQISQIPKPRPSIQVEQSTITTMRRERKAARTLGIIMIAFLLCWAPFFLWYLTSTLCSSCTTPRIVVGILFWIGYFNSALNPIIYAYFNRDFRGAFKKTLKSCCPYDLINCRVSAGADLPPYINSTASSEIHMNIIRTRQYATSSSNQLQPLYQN

Regarding `NCC(O)c1ccc(O)cc1` (racemic) [octopamine, (±)-octopamine hydrochloride], in experiment [1], the “effect on cAMP luminescence / cAMP production in empty-vector cells” value is on record as “not”. Besides, the EC50 with DmOctβR1 [2] is 5.56 nM; at BdOctβR1 [3] it was 0.911 nM; in the experiment with AmOctβR1, 43.9 nM.
Take `CN(C)CCCN1c2ccccc2Sc2ccc(Cl)cc21` [chlorpromazine, chlorpromazine hydrochloride]: the “antagonistic activity (in words)” value on BdOctβR1 [4] is on record as “weak antagonistic activity”; in the experiment on DmOctβR1 [5], “ineffective”. The IC50 (as a rule, the point on the concentration scale where inhibition reaches its midpoint) against BdOctβR1 [6] was determined as 2660 nM.
Take `NCCc1ccc(O)c(O)c1` [dopamine, dopamine hydrochloride]: the EC50 on BdOctβR1 [3] came out at 3320 nM.
With `CN1CCN2c3ccccc3Cc3ccccc3C2C1` (centres unmarked) [mianserin, mianserin hydrochloride], in the experiment with DmOctβR1 [5], the “antagonistic activity (in words)” value is recorded as “blocked”.
In the case of `c1ccc2c(CC3=NCCN3)cccc2c1` [naphazoline, naphazoline hydrochloride], at BdOctβR1 [3], the EC50 is 0.635 nM.
At BdOctβR1 [6], `Cc1ccc(N(CC2=NCCN2)c2cccc(O)c2)cc1` [phentolamine, phentolamine hydrochloride] registered an IC50 of 3800 nM. For the same compound, on BdOctβR1 [3] (HEK293, at 1.00 × 10^−5 M, normalized to octopamine at 1 × 10^−5 M (=100%), read-out: agonistic effect (relative cAMP luminescence)), the Emax at 10 µM is about 20%.
With `NCCc1ccc(O)cc1` [tyramine, Tyramine hydrochloride], the “effect on cAMP luminescence / cAMP production in empty-vector cells” value in experiment [1] is given as “not”. The EC50 on BdOctβR1 [3] is 19.7 nM.
